Assay results published in patent publication US10752588B2 (The Broad Institute, Inc., priority 2014, dated 2020).

Key:
human D2R/β-arrestin [1] = target: T1, human D2R/β-arrestin (Homo sapiens (Human), UniProt P14416); experiment: β-Arrestin agonist assay (PathHunter); format: cell-based; conditions: CHO-K1 cell line expressing human D2R/β-arrestin
Method in brief: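 Readout follows addition of Buffer:Emerald II:Galactor-Star reagent (19:5:1) to agonist-treated plates, measured as luminescence or fluorescence.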

human D2R/β-arrestin [2] = target: T1, human D2R/β-arrestin; experiment: cell-based; conditions: cAMP Antagonist, CHO-K1 cell line expressing human D2R/β-arrestin; quinpirole used as agonist
human D2R/β-arrestin [3] = target: T1, human D2R/β-arrestin; experiment: Gi/cAMP agonist assay (Lance Ultra cAMP, Forskolin); format: cell-based; conditions: CHO-K1 cell line expressing human D2R/β-arrestin
Method in brief: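 Read-out was Lance Ultra competitive TR-FRET (Eu-cAMP tracer plus ULight-anti-cAMP) following forskolin-induced cAMP production. Before forskolin stimulation, compounds were pin-transferred onto the seeded cells for 10 min at 37 °C.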

human D2R/β-arrestin [4] = target: T1, human D2R/β-arrestin; experiment: cell-based; conditions: β-arrestin Antagonist, CHO-K1 cell line expressing human D2R/β-arrestin; quinpirole used as agonist
Protocol: The detection reagents are then added, and the read-out is detected.
Cells were prepared for assays by growing cultures for up to 2 weeks (from about 6-20 passages). A vial of frozen cells was thawed in a water bath held at 37° C. The cells were then transferred into a 50 ml tube with 10 ml growth media. The vial was rinsed with growth media and the contents transferred to the 50 ml tube. The 50 ml tube was centrifuged at 1200 rpm for 5 minutes at room temperature. […] When the cells reached about 90% confluence (approximately 3 days between passages), the cells were passaged and used for either the agonist or antagonist assays as described below.
The cells were prepared for β-arrestin assays as described above. The assays were performed using a PathHunter® β-Arrestin Detecting Kit (DiscoveRX). The cells were grown on 225 mm dishes, then washed once with 1×PBS (Cellgro), followed by digestion with 2.5 ml 1× Detachment reagent (DRX 92-0009) for approximately 2 minutes.

T1 sequence (P14416 whole entry): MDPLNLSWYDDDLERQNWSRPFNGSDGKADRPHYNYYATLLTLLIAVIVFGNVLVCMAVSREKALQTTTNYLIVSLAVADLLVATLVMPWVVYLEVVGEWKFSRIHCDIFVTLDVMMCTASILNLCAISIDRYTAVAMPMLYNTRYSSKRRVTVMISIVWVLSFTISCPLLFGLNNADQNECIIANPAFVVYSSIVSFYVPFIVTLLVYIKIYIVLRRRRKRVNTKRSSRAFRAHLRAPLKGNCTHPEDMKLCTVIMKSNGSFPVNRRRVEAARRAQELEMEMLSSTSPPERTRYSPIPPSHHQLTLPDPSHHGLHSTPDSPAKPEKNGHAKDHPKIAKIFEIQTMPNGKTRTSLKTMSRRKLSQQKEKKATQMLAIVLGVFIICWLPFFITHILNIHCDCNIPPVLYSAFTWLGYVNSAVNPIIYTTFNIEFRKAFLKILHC

SMILES | EC50 (human D2R/β-arrestin [1]) | IC50 (human D2R/β-arrestin [2]) | EC50 (human D2R/β-arrestin [3]) | IC50 (human D2R/β-arrestin [4])
O=C(NC(c1ccc(F)cc1)c1ccccc1F)C1CCN(CCOc2ccccc2Cl)CC1 (stereo not drawn) [Compound 85, 1-(2-(2-chlorophenoxy)ethyl)-N-((2-fluorophenyl)(4-fluorophenyl)methyl)piperidine-4-carboxamide] | > 30000 nM | < 100 nM | > 30000 nM | < 100 nM
COc1cccc(C(NC(=O)C2CCN(CCOc3ccccc3Cl)CC2)c2ccccc2F)c1 (stereo not drawn) [Compound 86, 1-(2-(2-chlorophenoxy)ethyl)-N-((2-fluorophenyl)(3-methoxyphenyl)methyl)piperidine-4-carboxamide] | > 30000 nM | < 100 nM | > 30000 nM | < 100 nM
Fc1ccccc1OCCN1CCC(CNC(c2ccc(Cl)cc2)c2ccccc2F)CC1 (stereo not drawn) [Compound 87, 1-(4-chlorophenyl)-N-((1-(2-(2-fluorophenoxy)ethyl)piperidin-4-yl)methyl)-1-(2-fluorophenyl)methanamine] | > 30000 nM | 100 to 1000 nM | > 30000 nM | 100 to 1000 nM
Fc1ccc(F)c(OCCN2CCC(CNC(c3ccc(Cl)cc3)c3ccccn3)CC2)c1 (stereo not drawn) [Compound 89, 1-(4-chlorophenyl)-N-((1-(2-(2,5-difluorophenoxy)ethyl)piperidin-4-yl)methyl)-1-(pyridin-2-yl)methanamine] | > 30000 nM | 100 to 1000 nM | > 30000 nM | 100 to 1000 nM
COc1cccc(C(NC(=O)C2CCN(CCOc3cc(F)ccc3F)CC2)c2ccccn2)c1 (stereo not drawn) [Compound 90, 1-(2-(2,5-difluorophenoxy)ethyl)-N-((3-methoxyphenyl)(pyridin-2-yl)methyl) piperidine-4-carboxamide] | > 30000 nM | 1000 to 10000 nM | 1000 to 10000 nM | 1000 to 10000 nM
O=C(NC(c1ccc(Cl)cc1)c1ccncc1F)C1CCN(CCOc2ccccc2F)CC1 (stereo not drawn) [Compound 91, N-((4-chlorophenyl)(3-fluoropyridin-4-yl)methyl)-1-(2-(2-fluorophenoxy)ethyl)piperidine-4-carboxamide] | > 30000 nM | 100 to 1000 nM | 100 to 1000 nM | 100 to 1000 nM
CC(C1CCN(CCOc2ccccc2)CC1)N(C)C(c1ccc(Cl)cc1)c1ccccn1 (stereo not drawn) [Compound 97, N-((4-chlorophenyl)(pyridin-2-yl)methyl)-N-methyl-1-(1-(2-phenoxyethyl)piperidin-4-yl)ethan-1-amine] | > 30000 nM | < 100 nM | > 30000 nM | < 100 nM
CC1(CNC(c2ccc(F)cc2)c2ccccn2)CCN(CCOc2ccccc2C(F)(F)F)CC1 (stereo not drawn) [Compound 101, 1-(4-fluorophenyl)-N-((4-methyl-1-(2-(2-(trifluoromethyl)phenoxy)ethyl)piperidin-4-yl)methyl)-1-(pyridin-2-yl)methanamine] | > 30000 nM | < 100 nM | > 30000 nM | 100 to 1000 nM
c1ccc(OCCN2CCC(CNC(c3ccc4c(c3)OCO4)c3ccccn3)CC2)cc1 (stereo not drawn) [Compound 102, 1-(benzo[d][1,3]dioxol-5-yl)-N-((1-(2-phenoxyethyl)piperidin-4-yl)methyl)-1-(pyridin-2-yl)methanamine] | > 30000 nM | 100 to 1000 nM | 100 to 1000 nM | 100 to 1000 nM
FC(F)(F)c1ccccc1OCCN1CCC2(CC1)CCN(C(c1ccc(Cl)cc1)c1ccccn1)C2 (stereo not drawn) [Compound 106, 2-((4-chlorophenyl)(pyridin-2-yl)methyl)-8-(2-(2-(trifluoromethyl)phenoxy)ethyl)-2,8-diazaspiro[4.5]decane] | > 30000 nM | 1000 to 10000 nM | 1000 to 10000 nM | 100 to 1000 nM
CC(=O)N(CC1CCN(CCOc2ccccc2)CC1)C(c1ccc(Cl)cc1)c1ccccn1 (stereo not drawn) [Compound 107, N-((4-chlorophenyl)(pyridin-2-yl)methyl)-N-((1-(2-phenoxyethyl)piperidin-4-yl)methyl) acetamide] | > 30000 nM | > 30000 nM | 100 to 1000 nM | 100 to 1000 nM
COc1ccccc1OCCN1CCC(C(=O)NCc2nccc3ccccc23)CC1 [Compound 108, N-(isoquinolin-1-ylmethyl)-1-(2-(2-methoxyphenoxy)ethyl)piperidine-4-carboxamide] | > 30000 nM | > 30000 nM | < 100 nM | 1000 to 10000 nM
O=C(NC(c1ccc(Cl)cc1)c1ccccn1)C1CCN(CCCCOc2ccccc2)CC1 (stereo not drawn) [Compound 110] | > 30000 nM | 100 to 1000 nM | > 30000 nM | 1000 to 10000 nM
O=C(NC(c1ccccc1)c1ccccn1)C1CCN(CCOc2ccccc2)CC1 (stereo not drawn) [Compound 113, 1-(2-phenoxyethyl)-N-(phenyl(pyridin-2-yl)methyl)piperidine-4-carboxamide] | > 30000 nM | > 30000 nM | < 100 nM | 1000 to 10000 nM

Next, values leading:

EC50 (human D2R/β-arrestin [1]) | IC50 (human D2R/β-arrestin [2]) | EC50 (human D2R/β-arrestin [3]) | IC50 (human D2R/β-arrestin [4]) | SMILES
> 30000 nM | 1000 to 10000 nM | 100 to 1000 nM | 1000 to 10000 nM | COc1cccc(C(NCC2CCN(CCOc3ccccc3)CC2)c2ccccn2)c1 (stereo not drawn) [Compound 80, 1-(3-methoxyphenyl)-N-((1-(2-phenoxyethyl)piperidin-4-yl)methyl)-1-(pyridin-2-yl)methanamine]
> 30000 nM | 100 to 1000 nM | > 30000 nM | 100 to 1000 nM | Fc1ccccc1C(NCC1CCN(CCOc2ccccc2)CC1)c1ccc(Cl)cc1 (stereo not drawn) [Compound 81, 1-(4-chlorophenyl)-1-(2-fluorophenyl)-N-((1-(2-phenoxyethyl)piperidin-4-yl)methyl)methanamine]
> 30000 nM | 1000 to 10000 nM | > 30000 nM | 10000 to 30000 nM | COc1cccc(C(NC(=O)C2CCN(CCOc3ccc4ncsc4c3)CC2)c2ccccn2)c1 (stereo not drawn) [Compound 82, 1-(2-(benzo[d]thiazol-6-yloxy)ethyl)-N-((3-methoxyphenyl)(pyridin-2-yl)methyl)piperidine-4-carboxamide]
> 30000 nM | < 100 nM | > 30000 nM | < 100 nM | O=C(NC(c1ccc(F)cc1)c1ccc(F)cc1)C1CCN(CCOc2ccccc2Cl)CC1 [Compound 83, N-(bis(4-fluorophenyl)methyl)-1-(2-(2-chlorophenoxy)ethyl)piperidine-4-carboxamide]
> 30000 nM | 100 to 1000 nM | > 30000 nM | 100 to 1000 nM | O=C(NC(c1ccccc1F)c1ccccc1F)C1CCN(CCOc2ccccc2Cl)CC1 [Compound 84, N-(bis(2-fluorophenyl)methyl)-1-(2-(2-chlorophenoxy)ethyl)piperidine-4-carboxamide]
100 to 1000 nM | > 30000 nM | < 100 nM | 100 to 1000 nM | O=C(NC(c1ccc2c(c1)OC(F)(F)O2)c1ccccn1)C1CCN(CCOc2ccccc2F)CC1 (stereo not drawn) [Compound 94, N-((2,2-difluorobenzo[d][1,3]dioxol-5-yl)(pyridin-2-yl)methyl)-1-(2-(2-fluorophenoxy)ethyl)piperidine-4-carboxamide]
100 to 1000 nM | > 30000 nM | < 100 nM | > 30000 nM | Clc1ccc(C(c2ccccn2)N2CC3CCN(CCOc4ccccc4)CC3C2)cc1 (stereo not drawn) [Compound 98, 2-((4-chlorophenyl)(pyridin-2-yl)methyl)-5-(2-phenoxyethyl)octahydro-1H-pyrrolo[3,4-c]pyridine]
